Results published in US20050170360A1, “Variant neuronal nicotinic alpha-7 receptor and methods of use” (priority 2004, published 2005).
pEC50: −log10 of the molar value. Like-named read-outs stand apart in the source and are kept apart here. One block for each compound: values may come before it.

Experiments:
L247T mutant = L247T mutant (UniProt P22770, L270T, species not given); type: cell-based; details: for type of activity (agonist / antagonist): L247T
wild-type α7 nAChR = wild-type α7 nAChR (Rattus norvegicus, UniProt Q05941); test: Two-electrode voltage-clamp recording of Xenopus oocytes expressing wild-type α7
Procedure: Mature (>9 cm) female Xenopus laevis African toads (Nasco, Ft. Atkinson, Wis.) were used as a source of oocytes. Prior to surgery, frogs were anesthetized by placing the animal in a 2 g/L solution of MS222 (3-aminobenzoic acid ethyl ester). Oocytes were removed from an incision made in the abdomen.
(§3) Subsequently, stage 5 oocytes were isolated and injected with 50 nl each of a mixture of the appropriate subunit cRNAs following harvest. Recordings were made 3 to 21 days after injection depending on the cRNAs being tested.
(§4) Voltage-clamp recording of whole oocate responses. Data were obtained by means of two-electrode voltage-clamp recording. […] This extracellular solution was used for all experiments unless otherwise noted.
(§5) Bath solution and drug applications are applied through a linear perfusion system to oocytes placed in Lucite chamber with a total volume of 0.5 ml. Drug delivery involves pre-loading a 1.8 ml length of tubing at the terminus of the perfusion system, while a Mariotte flask filled with Ringer's solution is used to maintain constant perfusion. Applications of drug solutions are then synchronized with acquisition. […] In addition, some oocyte recordings were made using a beta version of the OpusXpress 6000A (Axon Instruments, Union City, Calif.). OpusXpress is an integrated system that provides automated impalement and voltage clamp, which in our case permitted the study of four oocytes in parallel. Cells were automatically perfused with bath solution, and agonist solutions were delivered from a 96-well compound plate. In experiments using the OpusXpress system, the voltage and current electrodes were filled with 3 M KCl. In all experiments, bath flow rates were set at 6 ml/minute.
(§6) Experimental protocols and analysis of data from Xenopus oocytes. Current responses to drug application were studied under two-electrode voltage clamp at a holding potential of −50 mV unless otherwise noted (−60 mV for the OpusXpress system). Holding currents immediately prior to agonist application were subtracted from measurements of the peak response to agonist. All drug applications were separated by a wash period of 5 minutes unless otherwise noted. […] Means and standard errors (SEM) were calculated from the normalized responses of at least four oocytes for each experimental concentration.
(§7) For concentration-response relations, data were plotted using Kaleidagraph 3.0.2 (Abelbeck Software; Reading, Pa.), and curves were generated using the Hill equation: [formula] where Imax denotes the maximal response for a particular agonist/subunit combination, and n represents the Hill coefficient. Imax, n, and the EC50 were all unconstrained for the fitting procedures.
(§8) Calculations of peak amplitudes and net charge were made using pClamp either during acquisition or during subsequent Clampfit analysis.

rat α7 TM2 T6'S = rat α7 TM2 T6'S (Rattus norvegicus, UniProt Q05941, T267S); test: Two-electrode voltage-clamp recording of Xenopus oocytes expressing α7 TM2 T6'S mutant
Procedure: Expression in Xenopus oocvtes. Mature (>9 cm) female Xenopus laevis African toads (Nasco, Ft. Atkinson, Wis.) were used as a source of oocytes. Prior to surgery, frogs were anesthetized by placing the animal in a 2 g/L solution of MS222 (3-aminobenzoic acid ethyl ester). Oocytes were removed from an incision made in the abdomen.
as §3, §4, §5, §6, §7, §8

rat α7 TM2 T6'F = target: T1, rat α7 TM2 T6'F (Rattus norvegicus, UniProt Q05941, T267F); test: Two-electrode voltage-clamp recording of Xenopus oocytes expressing α7 TM2 T6'F mutant; type: cell-based
T1 construct: expressed in transfected cells; host or cells: Xenopus laevis oocytes injected with cRNA
Excerpt: Site-directed mutagenesis.
(§1) Expression in Xenopus oocvtes.
(§2) Voltage-clamp recording of whole oocate responses.

muscle-type receptors = target: T2, muscle-type receptors (Mus musculus, UniProt P02716+P04756); test: Two-electrode voltage-clamp recording of Xenopus oocytes expressing muscle-type receptors; type: cell-based
T2 construct: expressed in transfected cells; host or cells: Xenopus laevis oocytes injected with cRNA
Excerpt: as §1, §2

SMILES: NCCc1c[nH]c2ccc(O)cc12 [5-HT]
type of activity (agonist / antagonist) (L247T mutant): agonist
type of activity (agonist / antagonist / potentiation) (wild-type α7 nAChR; Wild type): antagonist
type of activity (agonist / antagonist / potentiation) (rat α7 TM2 T6'S; T6'S): antagonist

SMILES: Oc1ccc2[nH]ccc2c1 [5HI, 5-hydroxy-indole]
type of activity (agonist / antagonist / potentiation) (wild-type α7 nAChR; Wild type): potentiates
type of activity (agonist / antagonist / potentiation) (rat α7 TM2 T6'S; T6'S): does not potentiate

SMILES: O=C1NCC2(CN3CCC2CC3)O1 (centres unmarked) [AR-R17779]
% agonist (wild-type α7 nAChR; Wild type): 78% agonist 10 μM
% agonist (rat α7 TM2 T6'S; T6'S): 90% agonist 30 μM

SMILES: C[N+](C)(C)CCO [Choline]
pEC50 (L247T mutant): 4.92
pEC50 (wild-type α7 nAChR): 3.52
% agonist (wild-type α7 nAChR; Wild type): 100% agonist 300 μM
pEC50 (rat α7 TM2 T6'S): 2.70
pEC50 (rat α7 TM2 T6'S; EC50, T6'S column): ~3.44
% agonist (rat α7 TM2 T6'S; T6'S): 95% agonist 2 mM

SMILES: O=c1cccc2n1C[C@@H]1CNC[C@H]2C1 [Cytisine]
% agonist (wild-type α7 nAChR): 73% agonist 13 μM
pEC50 (wild-type α7 nAChR): 4.89
% agonist (rat α7 TM2 T6'S): 80% agonist 43 μM
pEC50 (rat α7 TM2 T6'S): 4.37

SMILES: COc1ccc(/C=C2\CCCN=C2c2cccnc2)c(OC)c1 [GTS-21 (DMXB)]
type of activity (agonist / antagonist) (L247T mutant): full
pEC50 (wild-type α7 nAChR): 5.30
% agonist (wild-type α7 nAChR; Wild type): 32%
pEC50 (rat α7 TM2 T6'S): 5.52
% agonist (rat α7 TM2 T6'S; T6'S): 12%

SMILES: C[N+](C)(C)CCCCCC[N+](C)(C)C [Hexamethonium]
type of activity (agonist / antagonist) (L247T mutant): agonist
type of activity (agonist / antagonist / potentiation) (wild-type α7 nAChR; Wild type): antagonist
type of activity (agonist / antagonist / potentiation) (rat α7 TM2 T6'S; T6'S): antagonist

SMILES: CNCC/C=C/c1cccnc1 [TC-2403]
pEC50 (wild-type α7 nAChR): 3.62
% agonist (wild-type α7 nAChR; Wild type): 16%
pEC50 (rat α7 TM2 T6'S): 3.40
% agonist (rat α7 TM2 T6'S; T6'S): 18% agonist

% agonist (wild-type α7 nAChR; Wild type): 38%
% agonist (rat α7 TM2 T6'S; T6'S): 30%
SMILES: CN1[C@@H]2CC[C@H]1C[C@@H](OC(=O)c1c[nH]c3ccccc13)C2 [Tropisetron]

SMILES: COc1cc2c3cc1Oc1cc(ccc1O)C[C@@H]1c4c(cc(OC)c(O)c4Oc4ccc(cc4)C[C@@H]3N(C)CC2)CC[N+]1(C)C [Tubocurarine]
type of activity (agonist / antagonist) (L247T mutant): agonist
type of activity (agonist / antagonist / potentiation) (wild-type α7 nAChR; Wild type): antagonist
type of activity (agonist / antagonist / potentiation) (rat α7 TM2 T6'S; T6'S): antagonist

SMILES: [Zn+2] [Zinc]
type of activity (agonist / antagonist) (L247T mutant): agonist
type of activity (agonist / antagonist / potentiation) (wild-type α7 nAChR; Wild type): antagonist
type of activity (agonist / antagonist / potentiation) (rat α7 TM2 T6'S; T6'S): antagonist

SMILES: C[N+](C)(C)CCOC(=O)CCC(=O)OCC[N+](C)(C)C [succinylcholine]
activation of receptor (wild-type α7 nAChR): relatively ineffective
concentration-response function (wild-type α7 nAChR; full range of concentrations): respond poorly
activation of receptor (rat α7 TM2 T6'F; 100 μM succinylcholine): dramatic increase in sensitivity
concentration-response function (rat α7 TM2 T6'F; full range of concentrations): relatively potent, full agonist
type of activity (muscle-type receptors): Selective Agonist
activation of receptor (rat α7 TM2 T6'S): virtually no response
concentration-response function (rat α7 TM2 T6'S; full range of concentrations): respond poorly
